Measurements as given in US12116421B2, “Peptide-based Dopa containing adhesive gels” (KING ABDULLAH UNIVERSITY OF SCIENCE AND TECHNOLOGY, priority 2020, dated 2024).
Where a SMILES comes first, the peptide text is derived from it. [ ]: non-standard residue; d: D form. Dopa = N[C@@H](Cc1ccc(O)c(O)c1)C(=O)O; Cha = N[C@@H](CC1CCCCC1)C(=O)O

Tests used:
[1] = test system: mouse myoblast cells (C2C12); experiment: Cytocompatibility of peptide nanogels, 3D culture, MTT and live/dead staining; format: cell-based; details: various concentrations up to the solubility limit of the peptides
[2] = test system: mouse myoblast cells (C2C12); experiment: as above; format: cell-based; details: for effect on cell growth: C2C12, nanogel 3 mg/mL, compared to 2D culture; for biocompatibility with C2C12 cells: hydrogel scaffold, live/dead staining versus 2D culture
Experimental: In one embodiment, cytocompatibility of the peptide nanogels was evaluated using mouse myoblast cells (C2C12). After 24 hours of incubation, cell proliferation was tested with DoIIZK, IIZDoK, IIZKDo, IIZ(KDo)2 and IIZ(KDo)3 at a concentration of 3 mg/mL to evaluate biocompatibility. The MTT (3-(4,5-dimethylthiazol-2-yl)-2,5-diphenyltetrazolium bromide) assay was used in order to quantify the number of viable cells. In one embodiment, a standard curve for a known number of cells was also plotted. In one embodiment, the test results were compared to the positive control 2D culture. A positive indication of cytocompatibility would be the survival of the cells following incubation with the peptides. For comparison, peptides DoIIZK, IIZDoK, IIZKDo, IIZ(KDo)2 and IIZ(KDo)3 were tested as part of the study. The cytocompatibilty of all peptides tested was evaluated by quantifying the survival cells by visualising the live/dead cells using calcein AM and Ethidium bromide staining.
Poli-D Lysine (PDL) was used for 2D control. The scalebar in FIG. 35 is 200 μm. Cytocompatibility of all peptides was evaluated by quantifying the survival cells by visualising the live/dead cells using calcein AM and Ethidium homodimer staining. The live cells are stained green by calcein AM, while the dead cells are stained red by Ethidium homodimer.
For mouse myoblast cells (C2C12) culture expansion, C2C12 cells were cultured either in a T175 or T75 culture flask in complete DMEM media (10% FBS and 1% P/S). The cells were placed in a humidified incubator at 37° C., with 95% air and 5% CO2. Then they were subcultured using trypsin at approximately 80% confluence. Fresh culture media was added every 48 h to each well, after removing the previous media.
For 3D culture of mouse myoblast cells in peptide hydrogels and cell viability assay, C2C12 cells were encapsulated in peptide hydrogels in a 96-well plate.^61 Briefly, peptide solutions DopaIIZK, IIZDopaK, IIZKDopa (3 mg/mL) were added to 40 μL/well. Mouse myoblast cells (30,000 cells/well) that were re-suspended in 2×PBS were then, mixed gently with the peptide solutions. The gelation time was 1-3 min for all 5 peptides. Subsequently, the culture medium was added to the wells.
The viability of 3D cultured cells was assessed using the LIVE/DEAD Viability/Cytotoxicity Kit (ThermoFisher®, USA)^11. Calcein acetoxymethyl ester (Calcein-AM) is used to detect viable cells and ethidium homodimer-I (EthD-I) is used to detect dead cells. Briefly, staining with 2 μM of Calcein-AM and 4 μM of EthD-1 is performed after washing with Dulbecco's phosphate-buffered saline (D-PBS). After 30 minutes incubation, the staining solution was discarded, and 1×D-PBS was added to each well before imaging. Stained cells were imaged with an inverted confocal microscope (Zeiss® LSM 710 Inverted Confocal Microscope, Germany) or ZEISS® fluorescent microscope.

[3] = AFM force spectroscopy adhesion measurement in liquid; format: physicochemical
Experimental: In one embodiment, the peptides were dissolved in the proper solution at a concentration of 10 mg/mL. The peptide solutions were spotted on a freshly cleaved mica sheet and the measurement was performed in liquid.
In one embodiment, the adhesion properties of the Dopa peptides are influenced by the construct lysine-Dopa and by the position of the catechol moiety in the peptide sequence, as indicated by the AFM force spectroscopy results in liquid. In a typical force spectroscopy curve the probe is several times approached to the surface and retracted and for every cycle of retraction the maximum force of adhesion is recorded. The incorporation of a catechol moiety near a lysine would enhance adhesion to negatively charged surfaces. FIG. 28 illustrates the effect of lysine on adhesion to negatively charged surfaces. Therefore, probes and substrates that were manifesting negative charges on their surfaces, such as the silicon probe and the freshly cleaved mica substrate, are used in the AFM spectroscopy. The setup of probe and substrate is illustrated in FIG. 29.
The peptides dissolved in the proper solution at 13 mM concentration each, were spotted on a freshly cleaved mica sheet and the measurement was performed in liquid. Several force curves were recorded for different buffers. […] In FIG. 30, the inset image represents the maximum extension of each peptide dissolved in water, when manually pulled between two glass slides. Also in FIG. 30, the approach part of the curve contains the important information defined as “jump to contact”, while the retract part of the F-D curve contains the adhesion force value. […] Two controls were also introduced: namely the original peptide IIZK, and an alternative peptide IIFK. To better understand the influence of Dopa on the adhesion properties of the peptide, the original short peptide IIZK would make a perfect negative control. We also introduced as a control the IIFK peptide in order to understand the effect of IIZK itself on adhesion. In FIG. 32, statistical significance expressed as p<0.01.
AFM topography measurements were performed on a Dimension Icon SPM (Bruker®). The samples were prepared as follows: peptides were dissolved at 13 mM concentration in MilliQ® water; after 30 minutes, 20 μl of these solutions were dropped on freshly cleaved mica sheets and immediately dried with an N2 stream. Measurements were immediately performed in tapping mode in air by the use of an AFM probe AC_240TS_R3 (Olympus®) with nominal free oscillation at roughly 70 kHz and a nominal spring constant of 2 N/m. The probe was calibrated by contact-free method.^54 Free oscillation amplitude was set at 200 mV with a 5% damping during tapping mode measurement. AFM adhesion measurements were performed on a JPK Nanowizard™ III mounted on Olympus® IX-81 inverted optical microscope. A mica sheet was glued one day before the experiment with double component epoxy glue to a glass slide and enclosed in a plastic o-ring provided by the JPK company for liquid measurements. Each peptide was dissolved in MilliQ® water at a concentration of 13 mM and mixed gently. Starting with the measurement in MilliQ® water, 50 μL of the solution were dropped on the freshly cleaved mica sheet within 5 minutes from the preparation of the solution and let equilibrate for 10 minutes. After, the excess solution was removed by pipetting and discarded. Then 1 mL of MilliQ® water was added gently from the side and after 5 minutes, the sample was rinsed 3 times by additional 1 mL MilliQ® water. Finally, the sample was measured by AFM force spectroscopy (Quantitative imaging mode) with additional 1 mL MilliQ® water. The MilliQ® water was exchanged after the measurement alternatively with a water solution containing 137 mM NaCl or 10 mM Phosphate ions (a combination of Na2HPO4·7H2O and NaH2PO4·H2O to reach pH 7.4). After performing the force spectroscopy map in these two different solutions, eventually, the liquid was exchanged with 1×PBS pH 7.4. […]

| increase of adhesion force by addition of NaCl ([3]; NaCl versus MilliQ water) [%] | Compound | cell viability / toxicity [1] | effect on cell growth [2] | metabolic activity of cells versus 2D cultures ([2]; cells cultured in nanogels, 2D = cells in absence of peptides) | time cells stay metabolically active in nanogel ([2]; cells grown in nanogels) | biocompatibility with C2C12 cells [2] | Force of adhesion (Geometric Mean) ([3]; 10 mM PO4, peptide 13 mM) [PN] | Force of adhesion (Geometric Mean) ([3]; 137 mM NaCl, peptide 13 mM) [PN] | Force of adhesion (Geometric Mean) ([3]; 1×PBS, peptide 13 mM) [PN] | Force of adhesion (Geometric Mean) ([3]; MilliQ water, peptide 13 mM) [PN] | reduction of adhesion values by addition of both NaCl and PO4 ([3]; NaCl and PO4 versus MilliQ water) |
| --- | --- | --- | --- | --- | --- | --- | --- | --- | --- | --- | --- |
|  | CC[C@H](C)[C@H](NC(C)=O)C(=O)N[C@H](C(=O)N[C@@H](CC1CCCCC1)C(=O)N[C@@H](CCCCN)C(=O)N[C@@H](Cc1ccc(O)c(O)c1)C(=O)N[C@@H](CCCCN)C(=O)N[C@@H](Cc1ccc(O)c(O)c1)C(N)=O)[C@@H](C)CC [IIZ(KDo)2] (Ac-II[Cha]K[Dopa]K[Dopa]-NH2) | good viability | did not affect cell growth | consistently comparable to 2D cultures | metabolically active for up to day 21 | biocompatible |  |  |  |  |  |
|  | CC[C@H](C)[C@H](NC(C)=O)C(=O)N[C@H](C(=O)N[C@@H](CC1CCCCC1)C(=O)N[C@@H](CCCCN)C(=O)N[C@@H](Cc1ccc(O)c(O)c1)C(=O)N[C@@H](CCCCN)C(=O)N[C@@H](Cc1ccc(O)c(O)c1)C(=O)N[C@@H](CCCCN)C(=O)N[C@@H](Cc1ccc(O)c(O)c1)C(N)=O)[C@@H](C)CC [IIZ(KDo)3] (Ac-II[Cha]K[Dopa]K[Dopa]K[Dopa]-NH2) | toxic | reduced cell growth |  |  | not biocompatible |  |  |  |  |  |
| 20 | Ac-II[Cha]K-NH2 [IIZK, reference compound] |  |  |  |  |  | 5.681 | 100.4 | 11.5885 | 75.66 |  |
|  | Ac-Ile-Ile-Phe-Lys-NH2 (Ac-IIFK-NH2) [alternative peptide used as control, reference compound] |  |  |  |  |  | 8.358 | 13.217 | 12.13 | 89.77 | about 80% |
